# Reference: patent US8871753B2, “Macrocyclic compounds and their use as kinase inhibitors” (Incyte Corporation, priority 2008, dated 2014)
# Structures can show the parent of a compound that is named as a salt. Where two headings read alike, the source gives them in different places.
# Experiments:
# Type in all cases: biochemical
# TYK2 = TYK2 (Homo sapiens, UniProt P29597); test: TYK2 kinase inhibition (Table A1)
# [1] = molecular target: T1, human JAK3 (a.a. 781-1124) (Homo sapiens, UniProt P52333); test: In vitro JAK kinase assay (HTRF, phosphorylation of a biotinylated peptide), JAK3
# T1 construct: JAK3 (a.a. 781-1124); His tag (N); made in house; host or cells: insect cells (baculovirus)
# T1 sequence (P52333 781-1124): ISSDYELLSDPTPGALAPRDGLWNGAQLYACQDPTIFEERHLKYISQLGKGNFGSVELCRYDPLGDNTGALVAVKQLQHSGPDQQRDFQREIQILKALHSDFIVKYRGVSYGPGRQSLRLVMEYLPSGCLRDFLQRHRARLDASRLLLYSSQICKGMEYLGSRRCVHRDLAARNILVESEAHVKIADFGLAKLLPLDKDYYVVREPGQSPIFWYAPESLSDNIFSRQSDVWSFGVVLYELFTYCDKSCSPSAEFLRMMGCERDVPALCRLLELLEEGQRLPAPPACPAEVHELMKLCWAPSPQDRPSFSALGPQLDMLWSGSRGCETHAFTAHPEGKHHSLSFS
# Summary of the method: (§1)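 Kinase reactions ran at room temperature for 1 h with ATP matched per isoform (JAK1 90 μM, JAK2 30 μM, JAK3 3 μM). After an EDTA stop, the phosphorylated biotin-peptide was read by HTRF using Eu-Py20 and SA-APC after 40 min binding.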
# [2] = molecular target: T2, human JAK2 (a.a. 828-1132) (Homo sapiens, UniProt O60674); test: In vitro JAK kinase assay (HTRF, phosphorylation of a biotinylated peptide), JAK2
# T2 construct: JAK2 (a.a. 828-1132); His tag (N); made in house; host or cells: insect cells (baculovirus)
# T2 sequence (O60674 828-1132): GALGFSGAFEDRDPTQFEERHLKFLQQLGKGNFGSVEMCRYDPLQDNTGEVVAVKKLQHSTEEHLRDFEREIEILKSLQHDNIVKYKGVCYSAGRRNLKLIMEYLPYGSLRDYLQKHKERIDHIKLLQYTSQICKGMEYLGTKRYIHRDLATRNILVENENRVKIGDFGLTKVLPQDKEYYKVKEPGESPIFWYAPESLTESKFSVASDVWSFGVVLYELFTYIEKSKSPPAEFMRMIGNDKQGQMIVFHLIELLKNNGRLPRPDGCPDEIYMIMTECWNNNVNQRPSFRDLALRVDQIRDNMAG
# Summary of the method: as §1
# [3] = molecular target: T3, Recombinant Human Anaplastic Lymphoma Kinase (Homo sapiens, UniProt Q9UM73); test: ALK HTRF kinase assay
# T3 construct: purchased Invitrogen, Carlsbad, Calif
# T3 sequence (Q9UM73 19-1620): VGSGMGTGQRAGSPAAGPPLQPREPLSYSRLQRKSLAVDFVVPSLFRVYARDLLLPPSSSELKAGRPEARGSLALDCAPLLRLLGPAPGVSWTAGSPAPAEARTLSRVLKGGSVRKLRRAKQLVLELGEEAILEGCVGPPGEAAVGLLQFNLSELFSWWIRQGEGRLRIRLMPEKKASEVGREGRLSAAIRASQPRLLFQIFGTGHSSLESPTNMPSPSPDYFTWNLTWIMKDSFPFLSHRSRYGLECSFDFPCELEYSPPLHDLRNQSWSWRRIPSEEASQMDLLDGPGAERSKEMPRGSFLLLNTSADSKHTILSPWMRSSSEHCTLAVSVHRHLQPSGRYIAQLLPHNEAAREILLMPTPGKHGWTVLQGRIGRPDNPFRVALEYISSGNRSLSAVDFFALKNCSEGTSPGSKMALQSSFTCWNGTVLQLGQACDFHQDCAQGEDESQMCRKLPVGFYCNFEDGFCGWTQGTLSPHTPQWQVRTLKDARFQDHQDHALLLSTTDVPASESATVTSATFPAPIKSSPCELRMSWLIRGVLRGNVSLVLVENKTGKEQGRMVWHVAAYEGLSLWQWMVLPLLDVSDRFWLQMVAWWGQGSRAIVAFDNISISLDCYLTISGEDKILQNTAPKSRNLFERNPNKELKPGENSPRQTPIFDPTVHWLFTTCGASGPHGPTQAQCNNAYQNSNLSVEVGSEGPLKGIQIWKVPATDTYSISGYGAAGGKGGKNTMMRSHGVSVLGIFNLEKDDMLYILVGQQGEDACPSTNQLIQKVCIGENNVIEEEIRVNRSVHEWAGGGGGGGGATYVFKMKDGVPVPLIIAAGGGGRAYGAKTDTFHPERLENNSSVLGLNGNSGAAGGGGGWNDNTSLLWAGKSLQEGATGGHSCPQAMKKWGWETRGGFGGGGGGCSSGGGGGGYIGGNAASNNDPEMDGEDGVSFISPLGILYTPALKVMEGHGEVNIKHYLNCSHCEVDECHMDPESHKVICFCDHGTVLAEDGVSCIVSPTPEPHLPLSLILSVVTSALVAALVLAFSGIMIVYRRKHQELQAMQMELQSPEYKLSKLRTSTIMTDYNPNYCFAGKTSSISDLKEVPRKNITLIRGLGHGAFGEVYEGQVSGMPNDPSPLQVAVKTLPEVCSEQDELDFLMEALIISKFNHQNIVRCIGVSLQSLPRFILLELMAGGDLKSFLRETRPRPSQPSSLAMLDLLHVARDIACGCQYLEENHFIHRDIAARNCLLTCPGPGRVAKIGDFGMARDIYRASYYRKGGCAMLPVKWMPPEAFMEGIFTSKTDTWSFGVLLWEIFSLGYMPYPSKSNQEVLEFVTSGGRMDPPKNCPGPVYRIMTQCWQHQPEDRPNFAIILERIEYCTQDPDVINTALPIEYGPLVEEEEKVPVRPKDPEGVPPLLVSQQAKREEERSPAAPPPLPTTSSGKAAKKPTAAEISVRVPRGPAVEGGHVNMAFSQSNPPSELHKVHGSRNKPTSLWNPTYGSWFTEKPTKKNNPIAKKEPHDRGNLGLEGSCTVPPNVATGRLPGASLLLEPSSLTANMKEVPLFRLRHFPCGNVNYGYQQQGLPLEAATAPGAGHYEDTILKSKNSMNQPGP
# Summary of the method: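 Readout was HTRF between a Eu-W1024 anti-phosphotyrosine antibody and streptavidin-APC bound to biotinylated peptide phosphorylated by recombinant human ALK. IC50 values came from a four-parameter logistic fit.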
# [4] = molecular target: T4, human JAK1 (a.a. 837-1142) (Homo sapiens, UniProt P23458); test: In vitro JAK kinase assay (HTRF, phosphorylation of a biotinylated peptide), JAK1; settings: read-out: JAK1 IC50
# T4 construct: human JAK1 (a.a. 837-1142); His tag (N); made in house; host or cells: insect cells (baculovirus)
# T4 sequence (P23458 849-1154): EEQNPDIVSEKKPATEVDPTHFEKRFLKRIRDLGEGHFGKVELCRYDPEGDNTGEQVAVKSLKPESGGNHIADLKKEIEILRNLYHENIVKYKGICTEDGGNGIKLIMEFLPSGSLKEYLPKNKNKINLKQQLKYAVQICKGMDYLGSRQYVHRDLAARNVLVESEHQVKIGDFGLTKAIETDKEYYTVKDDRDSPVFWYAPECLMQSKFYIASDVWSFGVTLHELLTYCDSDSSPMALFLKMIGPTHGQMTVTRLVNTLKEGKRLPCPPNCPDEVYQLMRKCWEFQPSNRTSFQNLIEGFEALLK
# Summary of the method: as §1
# [5] = method AA1 (3 μM ATP) or AA2 (1000 μM ATP), not stated per value
# [6] = method AA1 (30 μM ATP) or AA2 (1000 μM ATP), not stated per value
# [7] = compound at 500 nM or 1 mM, 90 μM ATP
# [8] = method AA1 (90 μM ATP) or AA2 (1000 μM ATP), not stated per value
# [9] = percentage inhibition of the example compound at a concentration of 500 nM or 1 mM (not specified which)
# [10] = compound at a concentration of 500 nM or 1 mM (not specified), cells shown as percentage
# [11] = Table B1, cells without percent sign
# TYK2, sequence (P29597 whole entry): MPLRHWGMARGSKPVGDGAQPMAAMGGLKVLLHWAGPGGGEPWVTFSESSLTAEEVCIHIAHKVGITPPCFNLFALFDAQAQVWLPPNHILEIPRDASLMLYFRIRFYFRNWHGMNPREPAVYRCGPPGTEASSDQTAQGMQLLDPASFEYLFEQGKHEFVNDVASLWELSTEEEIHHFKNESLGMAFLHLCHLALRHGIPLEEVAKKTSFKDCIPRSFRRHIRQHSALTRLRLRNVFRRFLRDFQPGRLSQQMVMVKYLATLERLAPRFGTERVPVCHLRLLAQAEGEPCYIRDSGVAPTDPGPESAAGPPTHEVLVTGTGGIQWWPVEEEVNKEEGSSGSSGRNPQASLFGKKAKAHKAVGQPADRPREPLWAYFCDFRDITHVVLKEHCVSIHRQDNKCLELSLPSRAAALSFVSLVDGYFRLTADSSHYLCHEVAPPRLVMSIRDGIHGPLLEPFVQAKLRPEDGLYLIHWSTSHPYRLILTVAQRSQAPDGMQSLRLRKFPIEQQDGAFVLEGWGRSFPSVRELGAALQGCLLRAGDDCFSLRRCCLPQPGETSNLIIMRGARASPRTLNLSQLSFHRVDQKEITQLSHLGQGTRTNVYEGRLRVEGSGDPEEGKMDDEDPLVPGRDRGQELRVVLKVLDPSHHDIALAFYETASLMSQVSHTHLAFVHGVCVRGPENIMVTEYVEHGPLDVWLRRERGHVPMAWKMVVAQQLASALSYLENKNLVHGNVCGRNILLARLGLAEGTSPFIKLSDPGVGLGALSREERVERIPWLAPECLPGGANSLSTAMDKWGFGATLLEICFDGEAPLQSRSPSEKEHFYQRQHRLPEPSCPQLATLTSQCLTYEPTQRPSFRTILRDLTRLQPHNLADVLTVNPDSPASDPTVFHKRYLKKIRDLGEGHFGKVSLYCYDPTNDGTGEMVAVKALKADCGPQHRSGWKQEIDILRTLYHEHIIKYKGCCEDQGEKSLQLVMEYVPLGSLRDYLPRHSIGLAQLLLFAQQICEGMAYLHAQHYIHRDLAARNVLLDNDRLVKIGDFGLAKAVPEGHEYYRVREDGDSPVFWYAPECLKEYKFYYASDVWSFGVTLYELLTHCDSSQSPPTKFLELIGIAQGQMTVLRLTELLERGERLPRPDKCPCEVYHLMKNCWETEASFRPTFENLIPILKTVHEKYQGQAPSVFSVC
SMILES,IC50 (TYK2),"IC50 [1, 5]","IC50 [2, 6]","ALK % of inhibition at a concentration of 500 nM or 1 mM [3, 7]","IC50 [4, 8]",IC50 (TYK2; Table B1),IC50 ([1]; Table B1),IC50 ([2]; Table B1),"ALK % of inhibition at a concentration of 500 nM or 1 mM [3, 9]",IC50 ([4]; Table B1),"ALK % of inhibition at a concentration of 500 nM or 1 mM [3, 10]","IC50 [3, 11]",IC50 ([3]; 90 μM ATP)
"O=C(Nc1ccc2cc1CCc1cccc(c1)Nc1ncc(Cl)c(n1)N2)C1CCN(C(=O)Cc2ccccc2)CC1 [Example A35, N-[6-Chloro-2,4,8,22-tetraazatetracyclo[14.3.1.1(3,7).1(9,13)]docosa-1(20),3(22),4,6,9(21),10,12,16,18-nonaen-12-yl]-1-(phenylacetyl)piperidine-4-carboxamide trifluoroacetate]",228 nM,82 nM,62 nM,38%,42 nM,,,,,,,,
"O=C(NCCNS(=O)(=O)c1ccc(Cl)s1)Nc1ccc2cc1CCc1cccc(c1)Nc1ncc(Cl)c(n1)N2 [Example B330, 5-Chloro-N-{2-[({[6-chloro-2,4,8,22-tetraazatetracyclo[14.3.1.1(3,7).1(9,13)]docosa-1(20),3(22),4,6,9(21),10,12,16,18-nonaen-12-yl]amino}carbonyl)amino]ethyl}thiophene-2-sulfonamide trifluoroacetate]",,,,,,16 nM,7.1 nM,6.1 nM,21%,4 nM,,,
"O=C(Nc1ccc2cc1CCc1cccc(c1)Nc1ncc(Cl)c(n1)N2)C1CCN(C(=O)c2ccco2)CC1 [Example A32, N-[6-Chloro-2,4,8,22-tetraazatetracyclo[14.3.1.1(3,7).1(9,13)]docosa-1(20), 3(22),4,6,9(21),10,12,16,18-nonaen-12-yl]-1-(2-furoyl)piperidine-4-carboxamide trifluoroacetate]",66 nM,35 nM,29 nM,30%,30 nM,,,,,,,,
"CC(C)(C)OC(=O)N1CCN(Cc2ccc3cc2CCc2cccc(c2)Nc2ncc(Cl)c(n2)N3)CC1 [Example B221, tert-Butyl 4-{[6-chloro-2,4,8,22-tetraazatetracyclo[14.3.1.1(3,7).1(9,13)]docosa-1(20),3(22),4,6,9(21),10,12,16,18-nonaen-12-yl]methyl}piperazine-1-carboxylate bis(trifluoroacetate)]",,,,,,43 nM,59 nM,19 nM,,12 nM,8.1%,,
"O=C(Nc1ccc(Cl)nc1)Nc1ccc2cc1CCc1cccc(c1)Nc1ncc(Cl)c(n1)N2 [Example B121, N-(6-Chloropyridin-3-yl)-N′-[6-chloro-2,4,8,22-tetraazatetracyclo[14.3.1.1(3,7).1(9,13)]docosa-1(20),3(22),4,6,9(21),10,12,16,18-nonaen-12-yl]urea bis(trifluoroacetate)]",,,,,,19 nM,50 nM,7.9 nM,,2.2 nM,39%,,
"Cc1ccc(NC(=O)Nc2ccc3cc2CCc2cccc(c2)Nc2ncc(Cl)c(n2)N3)cc1 [Example B92, N-[6-Chloro-2,4,8,22-tetraazatetracyclo[14.3.1.1(3,7).1(9,13)]docosa-1(20),3(22),4,6,9(21),10,12,16,18-nonaen-12-yl]-N′-(4-methylphenyl)urea trifluoroacetate]",,,,,,9.7 nM,61 nM,5.3 nM,,4 nM,,> 1000 nM,
"O=C(Nc1ccc2cc1CCc1cccc(c1)Nc1ncc(Cl)c(n1)N2)Nc1ccccc1OC(F)F [Example B128, N-[6-Chloro-2,4,8,22-tetraazatetracyclo[14.3.1.1(3,7).1(9,13)]docosa-1(20), 3(22),4,6,9(21),10,12,16,18-nonaen-12-yl]-N′-[2-(difluoromethoxy)phenyl]urea trifluoroacetate]",,,,,,9.2 nM,13 nM,1.8 nM,,0.69 nM,32%,,
"O=C(CC1CCN(C(=O)c2cccnc2)CC1)Nc1ccc2cc1CCc1cccc(c1)Nc1ncc(Cl)c(n1)N2 [Example A184, N-[6-Chloro-2,4,8,22-tetraazatetracyclo[14.3.1.1(3,7).1(9,13)]docosa-1(20),3(22),4,6,9(21),10,12,16,18-nonaen-12-yl]-2-[1-(pyridin-3-ylcarbonyl)piperidin-4-yl]acetamide bis(trifluoroacetate)]",> 200 nM,> 200 nM,79 nM,29%,43 nM,,,,,,,,
"CNCc1ccc2cc1CCc1cncc(c1)Nc1ncc(Cl)c(n1)N2 [Example B334, 1-[6-Chloro-2,4,8,18,22-pentaazatetracyclo[14.3.1.1(3,7).1(9,13)]docosa-1(20),3(22),4,6,9(21),10,12,16,18-nonaen-12-yl]-N-methylmethanamine trihydrochloride]",,,,,,> 200 nM,> 200 nM,199 nM,72%,44 nM,,,
"O=C(Nc1ccc(CCO)cc1)c1cc2cc(c1)Nc1nc(ncc1Cl)Nc1cccc(c1)CC2 [Example B10, 6-Chloro-N-[4-(2-hydroxyethyl)phenyl]-2,4,8,22-tetraazatetracyclo[14.3.1.1(3,7).1(9,13)]docosa-1(20),3(22),4,6,9(21),10,12,16,18-nonaene-11-carboxamide trifluoroacetate]",,,,,,172 nM,51 nM,12 nM,,68 nM,,1960 nM,
"CC(C)(C)OC(=O)N[C@@H]1CCN(C(=O)Nc2ccc3cc2CCc2cccc(c2)Nc2ncc(Cl)c(n2)N3)C1 [Example B236, tert-Butyl [(3R)-1-({[6-chloro-2,4,8,22-tetraazatetracyclo[14.3.1.1(3,7).1(9,13)]docosa-1(20),3(22),4,6,9(21),10,12,16,18-nonaen-12-yl]amino}carbonyl)pyrrolidin-3-yl]carbamate]",,,,,,6.1 nM,9.7 nM,1.7 nM,,1.7 nM,29%,,
"O=C(Nc1ccc2cc1CCc1cccc(c1)Nc1ncc(Cl)c(n1)N2)C1CCCC1 [Example B60, N-[6-Chloro-2,4,8,22-tetraazatetracyclo[14.3.1.1(3,7).1(9,13)]docosa-1(20), 3(22),4,6,9(21),10,12,16,18-nonaen-12-yl]cyclopentanecarboxamide trifluoroacetate]",,,,,,47 nM,20 nM,8.4 nM,,22 nM,,> 1000 nM,
"O=C(Nc1ccc2cc1CCc1cccc(c1)Nc1ncc(Cl)c(n1)N2)[C@@H]1CCN(C(=O)c2ccccc2)C1 [Example A52, (3R)-1-Benzoyl-N-[6-chloro-2,4,8,22-tetraazatetracyclo[14.3.1.1(3,7).1(9,13)]docosa-1(20),3(22),4,6,9(21),10,12,16,18-nonaen-12-yl]pyrrolidine-3-carboxamide trifluoroacetate]",15 nM,7.8 nM,4.5 nM,35%,2.2 nM,,,,,,,,
"Cc1cnc2nc1Nc1cccc(c1)CCc1cccc(c1)N2 [Example B2, 6-Methyl-2,4,8,22-tetraazatetracyclo[14.3.1.1(3,7).1(9,13)]docosa-1(20),3(22),4,6,9(21),10,12,16,18-nonaene trifluoroacetate]",,,,,,19 nM,277 nM,8.4 nM,,11 nM,,> 1000 nM,
"CC(C)NC(=O)NCCNC(=O)Nc1ccc2cc1CCc1cccc(c1)Nc1ncc(Cl)c(n1)N2 [Example B188, N-[6-Chloro-2,4,8,22-tetraazatetracyclo[14.3.1.1(3,7).1(9,13)]docosa-1(20),3(22),4,6,9(21),10,12,16,18-nonaen-12-yl]-N′-(2-{[(isopropylamino)carbonyl]amino}ethyl)urea trifluoroacetate]",,,,,,13 nM,52 nM,7.7 nM,,4 nM,24%,,
"O=C1CCc2cccc(c2)Nc2nc(ncc2Cl)Nc2cccc1c2 [Example A5, 6-Chloro-2,4,8,23-tetraazatetracyclo[15.3.1.1(3,7).1(9,13)]tricosa-1(21),3(23),4,6,9(22),10,12,17,19-nonaen-16-one trifluoroacetate]",> 100 nM,> 100 nM,56 nM,,> 100 nM,,,,,,,,6180 nM
"Cc1cccc(NC(=O)N2CCC(CC(=O)Nc3ccc4cc3CCc3cncc(c3)Nc3ncc(Cl)c(n3)N4)CC2)c1 [Example A150, 4-(2-{[6-Chloro-2,4,8,18,22-pentaazatetracyclo[14.3.1.1(3,7).1(9,13)]docosa-1(20),3(22),4,6,9(21),10,12,16,18-nonaen-12-yl]amino}-2-oxoethyl)-N-(3-methylphenyl)piperidine-1-carboxamide bis(trifluoroacetate)]",5.1 nM,> 100 nM,1.1 nM,48%,0.3 nM,,,,,,,,
